According to ChEMBL document CHEMBL5038581, “Design, synthesis, and biological evaluation of novel dual inhibitors targeting lysine specific demethylase 1 (LSD1) and histone deacetylases (HDAC) for treatment of gastric cancer” (Eur J Med Chem, 2021):

Experiments:
CYP3A4 = CYP3A4 (Homo sapiens, UniProt P08684); assay: in vitro; settings: probe testosterone
CYP2D6 = CYP2D6 (Homo sapiens, UniProt P10635); assay: in vitro; settings: probe dextromethorphan
CYP2D6, sequence (P10635 whole entry): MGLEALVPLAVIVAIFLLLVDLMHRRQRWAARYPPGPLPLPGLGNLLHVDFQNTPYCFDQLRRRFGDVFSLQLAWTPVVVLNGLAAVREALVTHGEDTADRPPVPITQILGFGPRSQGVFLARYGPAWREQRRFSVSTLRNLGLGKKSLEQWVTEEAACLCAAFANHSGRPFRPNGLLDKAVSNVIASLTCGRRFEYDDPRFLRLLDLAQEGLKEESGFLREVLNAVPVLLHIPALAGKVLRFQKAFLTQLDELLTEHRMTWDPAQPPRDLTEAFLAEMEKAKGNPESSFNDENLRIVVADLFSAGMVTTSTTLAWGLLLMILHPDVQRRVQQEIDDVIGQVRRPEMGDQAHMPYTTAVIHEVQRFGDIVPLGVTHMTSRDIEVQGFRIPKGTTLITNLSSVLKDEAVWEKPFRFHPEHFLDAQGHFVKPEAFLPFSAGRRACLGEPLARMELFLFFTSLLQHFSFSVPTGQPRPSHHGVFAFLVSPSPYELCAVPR

CYP3A4, sequence (P08684 whole entry): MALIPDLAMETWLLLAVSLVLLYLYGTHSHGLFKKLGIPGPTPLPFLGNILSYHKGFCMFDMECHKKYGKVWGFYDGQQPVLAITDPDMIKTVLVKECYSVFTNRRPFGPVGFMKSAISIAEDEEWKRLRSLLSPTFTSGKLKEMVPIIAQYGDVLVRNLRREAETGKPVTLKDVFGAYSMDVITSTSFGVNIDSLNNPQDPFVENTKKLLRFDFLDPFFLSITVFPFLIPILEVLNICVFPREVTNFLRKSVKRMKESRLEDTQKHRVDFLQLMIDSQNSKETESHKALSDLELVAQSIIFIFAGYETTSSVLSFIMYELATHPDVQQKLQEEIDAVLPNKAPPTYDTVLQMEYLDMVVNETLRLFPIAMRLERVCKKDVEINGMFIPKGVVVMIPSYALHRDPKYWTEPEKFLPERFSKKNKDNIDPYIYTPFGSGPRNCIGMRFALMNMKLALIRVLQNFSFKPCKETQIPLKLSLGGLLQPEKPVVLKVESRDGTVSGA

inhibition at 1 µM (CYP2D6)	SMILES	inhibition at 0.1 µM (CYP3A4)
	CC(=O)N1CCN(c2ccc(OCC3COC(Cn4ccnc4)(c4ccc(Cl)cc4Cl)O3)cc2)CC1 (configuration not stated) [KETOCONAZOLE]	65.9%
91.3%	C=C[C@H]1C[N@@]2CC[C@H]1C[C@@H]2[C@@H](O)c1ccnc2ccc(OC)cc12 [QUINIDINE]	
